# Measurements taken from US12103951B2, “Use of CGRP receptor antagonists in neuroprotection and neurological disorders” (priority 2016, dated 2024).
# “Also recorded” adds a separate entry of the source.
# Experiments:
# [1] = system: retinal ganglion cell (RGC); experiment: Rat laser glaucoma model: number of RGCs (Brn3a positive cells) in retinal whole mounts; format: in vivo, Wistar rats
# Description: In this study, Wistar rats (n=12) were used for the experiments. The neuroprotective properties of compounds were investigated in a rat laser model of glaucoma. Rats were divided into two groups of six rats each. One group served as a placebo control receiving vehicle (NaCl) injections, and the other was treated with a peptide CGRP receptor antagonist (SEQ ID NO: 1). For all 12 rats, the contralateral, untreated eye served as a naïve undiseased control. The vehicle control and test compound (20 mg/kg) were administered systemically (IP) daily for the whole follow-up period of two weeks. The animals were sacrificed using transcardial perfusion. […] The number of Brn3a positive profiles was manually counted from retinal images taken from central and peripheral parts of retina. […]
# 1. Quantification of Brn3a and GFAP-positive cells from retinal whole mounts manually and using stereology. […]
# Retinal whole mounts were immuno-stained against RGC (Brn3a) and astrocytic (GFAP) antibodies and the number of cells was quantified either manually (Brn3a) or as previously described (Kalesnykas et al., 2008).
# The retinas were immuno-stained against RGC specific antibody Brn3a, retinas were imaged and Brn3a positive profiles were counted manually using Image J software (NIH, Bethesda, Maryland, USA). […]
# optic nerve axons = experiment: Rat laser glaucoma model: total number of optic nerve axons (stereology); format: in vivo, Wistar rats; conditions: IP daily for two weeks; for total number of optic nerve axons, lasered vs contralateral control eyes: paired sample t-test, P>0.05
# Description: In this study, Wistar rats (n=12) were used for the experiments. The neuroprotective properties of compounds were investigated in a rat laser model of glaucoma. Rats were divided into two groups of six rats each. One group served as a placebo control receiving vehicle (NaCl) injections, and the other was treated with a peptide CGRP receptor antagonist (SEQ ID NO: 1). For all 12 rats, the contralateral, untreated eye served as a naïve undiseased control. The vehicle control and test compound (20 mg/kg) were administered systemically (IP) daily for the whole follow-up period of two weeks. The animals were sacrificed using transcardial perfusion. The retinal whole-mounts were then immuno-stained against retinal ganglion cell (RGC) marker Brn3a and astrocytic marker GFAP (glial fibrillary acidic protein). The number of Brn3a positive profiles was manually counted from retinal images taken from central and peripheral parts of retina. The total number of GFAP-immunoreactive cells (retinal astrocytes) was estimated using stereology. The total number of RGC axons in the optic nerve was estimated using stereology.
# The rat glaucoma model was induced unilaterally by laser photocoagulation of episcleral veins as previously described (Kalesnykas et al., 2007). Anesthesia was performed using sodium pentobarbital (30 mg/kg). […]
# 2. Quantification of optic nerve axons using stereology. […]
# After the optic nerves were post-fixed in 4% PFA (in 0.1M phosphate buffer, pH 7.4) solution, they were placed in 1% osmium, dehydrated in ascending alcohol concentration and placed in 1% uranyl acetate in 100% ethanol for 1 hour (Cone et al., 2012). […] Briefly, axons were counted manually using the Stereo Investigator software (MicroBrightField, VT, USA). […]
# Quantitative data was graphed, analyzed and presented as mean±standard deviation (SD) or standard error of mean (SEM). Parametric data was analyzed using paired-samples T-test (the contralateral eye of the same animal serves as control). Non-parametric data was analyzed using Mann-Whitney U test (comparison of 2 groups) or Wilcoxon paired-samples T-test. […]
substance,measurement,setting,value
"NH2-Ala-Cys-Asp-Thr-Ala-Ala-Cys-Val-Leu-Gly-Arg-Leu-Ser-Gln-Glu-Leu-His-Arg-Leu-Gln-Thr-Tyr-Pro-Arg-Thr-Asn-Val-Gly-Ser-Lys-Ala-Phe-NH2 (H-ACDTAACVLGRLSQELHRLQTYPRTNVGSKAF-NH2; ends and bridges not checked) [SEQ ID NO: 1, peptide CGRP receptor antagonist]","number of Brn3a positive cells, increase in lasered eyes vs contralateral control eyes","[1]; IP daily for two weeks, increase, P=0.43",3.0%
same,neuroprotection at cellular and optic nerve axon levels,"[1]; rat glaucoma model, systemic administration",showed neuroprotection
same,"total number of optic nerve axons, increase vs optic nerves from contralateral control eyes",optic nerve axons; increase,1.7%
same,"total number of optic nerve axons, lasered vs contralateral control eyes",optic nerve axons,did not differ significantly; also recorded: smallest decrease in the total number of axons
same,"total number of optic nerve axons, lasered vs contralateral control eyes",optic nerve axons; listed as CGRP antagonist,slight increase
